Experiments:
[1] = Anti-inflammatory activity for oral route (carrageenin edema of hind paw); format: in vivo, male rats of Wistar-strain; settings: for anti-inflammatory effect for oral route (relative inhibition versus indomethacin): 10mg/kg, percent inhibition divided by that of indomethacin, edema measured after 3 hours
Method: A group of five male rats of Wistar-strain (body weight 100-150 g) were orally given each test compound suspended in 0.5% tragacanth-saline. After one hour 1.0% carrageenin suspended in the water for injection was injected subcutaneously to a hind paw.

[2] = Acute toxicity (lethal dose); format: in vivo; settings: mice, estimated from death 72 hours following administration
Method: Each test compound suspended in 1% tragacanth-saline was administered intraperitoneally or orally to male mice of ddY-strain (body weight 16-24 g). The lethal dose was estimated from the death of animals 72 hours following administration.

[3] = Ulcerogenic activity on rat stomach; format: in vivo, Male Wistar rats; settings: oral, 20 mg/kg, 18 hours after administration; sum of area of erosion and ulcer
Method: Male Wistar rats weighing 200-220 g were fasted for 24 hours. Indomethacin and the test drugs were suspended with 0.5% tragacanth solution, and these suspensions were given the animals orally at each dose of 20 mg/kg. The animals were sacrificed with ether 18 hours after administration. The excised stomachs were filled with 1% formalin solution and the whole were immersed in the 1% formalin solution for fixation. Thereafter, an incision was made parallel to the greater curvature to examine whether or not an erosion or ulcer occurs. The degree of erosion and ulcer was represented by the sum of area (mm^2).

Row | SMILES | mean percent inhibition of carrageenin edema ([1]; 10 mg/kg) | anti-inflammatory effect for oral route (relative inhibition versus indomethacin) [1] | acute toxicity for oral route (lethal dose) [2] | gastric ulcer index [3]
1 | COc1ccc2c(c1)c(CC(=O)O)c(C)n2C(=O)c1ccc(Cl)cc1 [indomethacin, reference compound] | 41.1% | 1.0 | 10 to 20 mg/kg | 6.75 ± 1.98 mm^2
2 | COc1ccc2c(c1)c(CC(=O)OCc1ccccc1C)c(C)n2C(=O)c1ccc(Cl)cc1 | – | – | > 500 mg/kg | 0.19 ± 0.13 mm^2
3 | COc1ccc2c(c1)c(CC(=O)OCc1ccccc1F)c(C)n2C(=O)c1ccc(Cl)cc1 | – | 0.76 | > 500 mg/kg | 0.50 ± 0.30 mm^2
4 | COc1ccc2c(c1)c(CC(=O)OCc1cccc(C)c1)c(C)n2C(=O)c1ccc(Cl)cc1 | – | – | 200 to 500 mg/kg | 0.13 ± 0.08 mm^2
5 | COc1ccc2c(c1)c(CC(=O)OCc1ccc(F)cc1)c(C)n2C(=O)c1ccc(Cl)cc1 | – | 0.41 | > 500 mg/kg | 0.13 ± 0.08 mm^2
6 | COc1ccc2c(c1)c(CC(=O)OCc1ccc(C)cc1)c(C)n2C(=O)c1ccc(Cl)cc1 | – | 1.00 | 500 mg/kg | 0.88 ± 0.39 mm^2
7 | COc1ccc2c(c1)c(CC(=O)OCc1cccc(F)c1)c(C)n2C(=O)c1ccc(Cl)cc1 | – | 0.68 | > 500 mg/kg | 0.50 ± 0.38 mm^2

Source: patent US4165428A, “Indoleacetic acid ester derivatives” (Hisamitsu Pharmaceutical Co., Inc., priority 1976, dated 1979)
